Laboratory results taken from patent US12495798B2, “Nicotinamide compound and herbicidal composition comprising compound” (KOREA RESEARCH INSTITUTE OF CHEMICAL TECHNOLOGY, priority 2019, dated 2025).

Tests used:
Assay type in all cases: in vivo
sorghum [1] = experiment: Herbicidal activity test against upland field weeds (foliar treatment test); details: Sorghum, 50 g ai/ha, scale 0-100
How it was run: (§1)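 Greenhouse-grown plants (30±5 °C, 14/10 h light/dark) foliar hand-sprayed with compound in 50% acetone, 0.1% Tween-20 at 50 or 75 g a.i./ha. Control visually scored 0 (none) to 100 (complete) versus untreated after 14 days, or 21 days if needed.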

barnyard grass = experiment: as above; design: key to Foliar treatment herbicidal activity, barnyard grass: 0 (no control); 100 (complete control); details: 50 g ai/ha, scale 0-100; for pest or weed control at 50 g/ha: Echinochloa crus-galli
How it was run: as §1

quack grass = experiment: as above; design: key to Foliar treatment herbicidal activity, quack grass: 0 (no control); 100 (complete control); details: 50 g ai/ha, scale 0-100
How it was run: as §1

black nightshade = experiment: as above; design: key to Foliar treatment herbicidal activity, black nightshade: 0 (no control); 100 (complete control); details: 50 g ai/ha, scale 0-100; for pest or weed control at 50 g/ha: Solanum nigrum
How it was run: as §1

sorghum [2] = experiment: Herbicidal activity test against upland field weeds (soil treatment test); design: key to Soil treatment herbicidal activity, Sorghum: 0 (no control); 100 (complete control); details: 50 g ai/ha, scale 0 (no control) to 100 (complete control); for plant injury at 50 g/ha: Sorghum
How it was run: (§2)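 Pre-emergence soil surface spray, day after sowing, into sandy loam pots with fertilizer; compounds at 50 or 75 g a.i./ha in 50% acetone, 0.1% Tween-20. Greenhouse at 30±5 °C, 14/10 h light/dark; visual control rated 0–100 against untreated after 14 days (21 if needed).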

fall panicum = experiment: as above; design: key to Soil treatment herbicidal activity, Fall panicum: 0 (no control); 100 (complete control); details: 50 g ai/ha, scale 0 (no control) to 100 (complete control); for pest or weed control at 50 g/ha: Panicum dichotomiflorum
How it was run: as §2

indian jointvetch = experiment: as above; design: key to Soil treatment herbicidal activity, Indian jointvetch: 0 (no control); 100 (complete control); details: 50 g ai/ha, scale 0 (no control) to 100 (complete control)
How it was run: as §2

velvetleaf = experiment: as above; design: key to Soil treatment herbicidal activity, velvet leaf: 0 (no control); 100 (complete control); details: 50 g ai/ha, scale 0 (no control) to 100 (complete control)
How it was run: as §2

cocklebur = experiment: as above; design: key to Soil treatment herbicidal activity, Cocklebur: 0 (no control); 100 (complete control); details: 50 g ai/ha, scale 0 (no control) to 100 (complete control); for pest or weed control at 50 g/ha: Xanthium strumarium
How it was run: as §2

corn = experiment: Phytotoxicity test for field crops (soil treatment test); design: key: 0 (no harm); 9 (complete withered)
How it was run: (§3)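 Applied as a soil treatment one day after sowing, at final rates of 19˜300 g a.i./ha. Damage is graded visually (0 = no harm, 9 = complete withered) compared with untreated control, 10 and 20 days after treatment.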

cotton = experiment: as above; design: key: 0 (no harm); 9 (complete withered)
How it was run: as §3

rice = experiment: as above; design: key: 0 (no harm); 9 (complete withered)
How it was run: as §3

soybean = experiment: as above; design: key: 0 (no harm); 9 (complete withered)
How it was run: as §3

wheat = experiment: as above; design: key: 0 (no harm); 9 (complete withered)
How it was run: as §3

[3] = 50 g ai/ha, Corn (10 days after treatment)
[4] = 50 g ai/ha, Corn (20 days after treatment)
[5] = 100 g ai/ha, Corn (10 days after treatment)
[6] = 100 g ai/ha, Corn (20 days after treatment)
[7] = 50 g ai/ha, Cotton (10 days after treatment)
[8] = 50 g ai/ha, Cotton (20 days after treatment)
[9] = 100 g ai/ha, Cotton (10 days after treatment)
[10] = 100 g ai/ha, Cotton (20 days after treatment)
[11] = 50 g ai/ha, Rice (10 days after treatment)
[12] = 50 g ai/ha, Rice (20 days after treatment)
[13] = 100 g ai/ha, Rice (10 days after treatment)
[14] = 100 g ai/ha, Rice (20 days after treatment)
[15] = 50 g ai/ha, Soybean (10 days after treatment)
[16] = 50 g ai/ha, Soybean (20 days after treatment)
[17] = 100 g ai/ha, Soybean (10 days after treatment)
[18] = 100 g ai/ha, Soybean (20 days after treatment)
[19] = 50 g ai/ha, Wheat (10 days after treatment)
[20] = 50 g ai/ha, Wheat (20 days after treatment)
[21] = 100 g ai/ha, Wheat (10 days after treatment)
[22] = 100 g ai/ha, Wheat (20 days after treatment)

Row | Structure (SMILES) | plant injury at 50 g/ha (sorghum [1]) | Foliar treatment herbicidal activity, quack grass (quack grass) | Soil treatment herbicidal activity, Indian jointvetch (indian jointvetch) | Soil treatment herbicidal activity, velvet leaf (velvetleaf) | Soil treatment phytotoxicity, Corn (corn; [3]) | Soil treatment phytotoxicity, Corn (corn; [4]) | Soil treatment phytotoxicity, Corn (corn; [5]) | Soil treatment phytotoxicity, Corn (corn; [6]) | Soil treatment phytotoxicity, Cotton (cotton; [7]) | Soil treatment phytotoxicity, Cotton (cotton; [8]) | Soil treatment phytotoxicity, Cotton (cotton; [9]) | Soil treatment phytotoxicity, Cotton (cotton; [10]) | Soil treatment phytotoxicity, Rice (rice; [11]) | Soil treatment phytotoxicity, Rice (rice; [12]) | Soil treatment phytotoxicity, Rice (rice; [13]) | Soil treatment phytotoxicity, Rice (rice; [14]) | Soil treatment phytotoxicity, Soybean (soybean; [15]) | Soil treatment phytotoxicity, Soybean (soybean; [16]) | Soil treatment phytotoxicity, Wheat (wheat; [19]) | Soil treatment phytotoxicity, Wheat (wheat; [20]) | other results
1 | Cn1nnc(COCc2nc(C(F)(F)F)ccc2C(=O)Nc2nnnn2C)n1 [Compound No. 2-59, N-(1-methyl-1H-tetrazol-5-yl)-2-(((2-methyl-2H-tetrazol-5-yl)methoxy)methyl)-6-(trifluoromethyl)nicotinamide] | 98% | 0 | 100 | 100 | 0 | 0 | 0 | 0 | 1 | 6 | 3 | 9 | 6 | 8 | 8 | 8 | 2 | 5 | 0 | 0 | Foliar treatment herbicidal activity, barnyard grass (barnyard grass): 100; Foliar treatment herbicidal activity, black nightshade (black nightshade): 100; Soil treatment herbicidal activity, Sorghum (sorghum [2]): 100; Soil treatment herbicidal activity, Fall panicum (fall panicum): 100; pest or weed control at 50 g/ha (cocklebur): 20%; Soil treatment phytotoxicity, Soybean (soybean; [17]): 3; Soil treatment phytotoxicity, Soybean (soybean; [18]): 6; Soil treatment phytotoxicity, Wheat (wheat; [21]): 0; Soil treatment phytotoxicity, Wheat (wheat; [22]): 0
2 | Cn1nnc(COCc2nc(C(F)(F)F)ccc2C(=O)N(C(=O)c2ccccc2)c2nnnn2C)n1 [Compound No. 2-68, N-benzoyl-N-(1-methyl-1H-tetrazol-5-yl)-2-(((2-methyl-2H-tetrazol-5-yl)methoxy)methyl)-6-(trifluoromethyl)nicotinamide] | 80% | 0 | 100 | 100 | 0 | 0 | 0 | 0 | 1 | 5 | 3 | 9 | 6 | 7 | 8 | 9 | 0 | 0 | 0 | 0 | Foliar treatment herbicidal activity, barnyard grass (barnyard grass): 100; Foliar treatment herbicidal activity, black nightshade (black nightshade): 100; plant injury at 50 g/ha (sorghum [2]): 40%; pest or weed control at 50 g/ha (fall panicum): 90%; Soil treatment herbicidal activity, Cocklebur (cocklebur): 0; Soil treatment phytotoxicity, Soybean (soybean; [17]): 0; Soil treatment phytotoxicity, Soybean (soybean; [18]): 0; Soil treatment phytotoxicity, Wheat (wheat; [21]): 0; Soil treatment phytotoxicity, Wheat (wheat; [22]): 0
3 | Cn1nnc(COCc2nc(C(F)(F)F)ccc2C(=O)N(c2nnnn2C)S(C)(=O)=O)n1 [Compound No. 2-69, N-(1-methyl-1H-tetrazol-5-yl)-2-(((2-methyl-2H-tetrazol-5-yl)methoxy)methyl)-N-(methylsulfonyl)-6-(trifluoromethyl)nicotinamide] | 40% | 0 | 100 | 100 | 0 | 0 |  |  | 1 | 5 |  |  | 7 | 8 |  |  | 0 | 0 | 0 | 1 | pest or weed control at 50 g/ha (barnyard grass): 70%; pest or weed control at 50 g/ha (black nightshade): 95%; plant injury at 50 g/ha (sorghum [2]): 70%; pest or weed control at 50 g/ha (fall panicum): 98%; Soil treatment herbicidal activity, Cocklebur (cocklebur): 0
4 | Cn1nnc(COCc2nc(C(F)(F)Cl)ccc2C(=O)Nc2nnnn2C)n1 [Compound No. 2-78, 6-(chlorodifluoromethyl)-N-(1-methyl-1H-tetrazol-5-yl)-2-(((2-methyl-2H-tetrazol-5-yl)methoxy)methyl)nicotinamide] | 30% | 0 |  | 100 | 0 | 0 | 1 | 0 | 2 | 6.5 | 3 | 9 | 6 | 6 | 9 | 9 | 0 | 0 | 0 | 0 | pest or weed control at 50 g/ha (barnyard grass): 70%; pest or weed control at 50 g/ha (black nightshade): 95%; plant injury at 50 g/ha (sorghum [2]): 50%; pest or weed control at 50 g/ha (fall panicum): 90%; pest or weed control at 50 g/ha (indian jointvetch): 95%; pest or weed control at 50 g/ha (cocklebur): 70%; Soil treatment phytotoxicity, Soybean (soybean; [17]): 0; Soil treatment phytotoxicity, Soybean (soybean; [18]): 0; Soil treatment phytotoxicity, Wheat (wheat; [21]): 0; Soil treatment phytotoxicity, Wheat (wheat; [22]): 0
5 | Cn1nnc(COCc2nc(C(F)(F)C(F)(F)F)ccc2C(=O)Nc2nnnn2C)n1 [Compound No. 2-81, N-(1-methyl-1H-tetrazol-5-yl)-2-(((2-methyl-2H-tetrazol-5-yl)methoxy)methyl)-6-(perfluoroethyl)nicotinamide] | 40% | 0 | 100 | 100 | 0 | 0 | 1 | 0 | 0 | 4 | 1 | 6 | 6 | 7 | 8 | 8 | 0 | 0 | 0 | 0 | pest or weed control at 50 g/ha (barnyard grass): 80%; pest or weed control at 50 g/ha (black nightshade): 95%; plant injury at 50 g/ha (sorghum [2]): 50%; pest or weed control at 50 g/ha (fall panicum): 98%; Soil treatment herbicidal activity, Cocklebur (cocklebur): 100; Soil treatment phytotoxicity, Soybean (soybean; [17]): 0; Soil treatment phytotoxicity, Soybean (soybean; [18]): 0; Soil treatment phytotoxicity, Wheat (wheat; [21]): 0; Soil treatment phytotoxicity, Wheat (wheat; [22]): 0
